In article PMC8645336, “Benchmarking a highly selective USP30 inhibitor for enhancement of mitophagy and pexophagy” (Life Science Alliance, 2021) one finds remaining activity data, which are given here for one molecule.

Assay in all cases: biochemical
Holding throughout (design): Ubiquigent DUB profiler selectivity panel, remaining enzyme activity as % of control
Common to all, as to details: read-out: % of control remaining

Experiment [1] concerns the target T1, Ataxin3L (Homo sapiens, UniProt Q9H3M9).
T1 construct: gene ATXN3L
T1 sequence (Q9H3M9 1-355): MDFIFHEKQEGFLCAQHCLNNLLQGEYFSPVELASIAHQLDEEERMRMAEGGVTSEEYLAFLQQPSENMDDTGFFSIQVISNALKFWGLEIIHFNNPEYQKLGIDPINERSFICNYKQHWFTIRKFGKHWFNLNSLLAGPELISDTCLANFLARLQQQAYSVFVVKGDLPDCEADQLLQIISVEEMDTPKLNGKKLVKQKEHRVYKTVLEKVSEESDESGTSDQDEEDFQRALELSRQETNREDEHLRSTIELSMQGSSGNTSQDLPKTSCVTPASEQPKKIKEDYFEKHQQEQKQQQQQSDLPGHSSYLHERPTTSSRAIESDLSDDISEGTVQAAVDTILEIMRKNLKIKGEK
A digest of the protocol: (§1)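 CMPD-39 selectivity was profiled at 1-100 μM across >40 DUBs. Cellular engagement used 2 h CMPD-39 pretreatment, then HA-Ub-PA probe for 10 min at 37°C, with USP30 band shift on immunoblot. TOMM20 ubiquitylation was blotted in YFP-PRKN hTERT-RPE1 cells after 1 h antimycin A/oligomycin A (1 μM each).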

Experiment [2] has as its target T2, CYLD (Homo sapiens, UniProt Q9NQC7).
T2 sequence (Q9NQC7 1-956): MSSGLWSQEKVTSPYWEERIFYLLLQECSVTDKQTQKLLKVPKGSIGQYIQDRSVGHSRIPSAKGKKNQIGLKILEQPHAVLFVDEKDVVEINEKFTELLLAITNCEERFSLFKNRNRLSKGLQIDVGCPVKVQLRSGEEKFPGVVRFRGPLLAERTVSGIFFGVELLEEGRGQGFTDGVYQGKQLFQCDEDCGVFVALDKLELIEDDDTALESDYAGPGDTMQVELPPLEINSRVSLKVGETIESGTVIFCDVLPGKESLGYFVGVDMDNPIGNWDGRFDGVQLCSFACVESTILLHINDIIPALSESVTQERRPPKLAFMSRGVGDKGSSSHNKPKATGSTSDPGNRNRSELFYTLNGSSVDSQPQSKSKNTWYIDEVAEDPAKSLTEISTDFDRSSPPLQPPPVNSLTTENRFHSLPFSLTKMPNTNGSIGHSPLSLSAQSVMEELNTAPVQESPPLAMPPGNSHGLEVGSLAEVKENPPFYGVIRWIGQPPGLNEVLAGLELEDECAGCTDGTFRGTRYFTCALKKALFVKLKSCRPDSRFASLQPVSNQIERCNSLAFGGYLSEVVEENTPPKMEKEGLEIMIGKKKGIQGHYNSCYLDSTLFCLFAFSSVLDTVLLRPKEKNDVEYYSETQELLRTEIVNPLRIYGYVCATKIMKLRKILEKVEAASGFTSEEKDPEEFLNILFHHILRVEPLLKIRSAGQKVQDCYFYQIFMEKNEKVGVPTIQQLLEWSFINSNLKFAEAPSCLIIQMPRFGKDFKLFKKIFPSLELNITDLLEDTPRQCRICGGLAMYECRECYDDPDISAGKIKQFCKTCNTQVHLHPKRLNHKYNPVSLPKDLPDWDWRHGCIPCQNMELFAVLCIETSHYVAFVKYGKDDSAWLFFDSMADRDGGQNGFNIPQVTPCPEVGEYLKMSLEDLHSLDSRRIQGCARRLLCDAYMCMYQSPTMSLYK
In short, it runs like this:
as §1

For experiment [3], the target named is T3, JOSD2 (Homo sapiens, UniProt Q8TAC2).
T3 sequence (Q8TAC2 1-188): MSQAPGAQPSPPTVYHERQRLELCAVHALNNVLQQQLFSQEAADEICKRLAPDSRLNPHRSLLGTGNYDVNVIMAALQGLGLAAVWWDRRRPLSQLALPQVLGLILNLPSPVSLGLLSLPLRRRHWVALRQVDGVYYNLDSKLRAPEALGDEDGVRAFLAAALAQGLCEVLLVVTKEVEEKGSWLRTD
A digest of the protocol:
as §1

Regarding `CC(C)(C)NS(=O)(=O)c1ccc(NC(=O)[C@H](Cc2ccccc2)NC(=O)c2ccc(F)cc2)cc1` [compound 39, CMPD-39], in experiment [1], the remaining activity at 1 µM is 103%, the remaining activity at 10 µM amounted to 101% and the remaining activity at 100 µM is 102%. Besides, in experiment [2], the remaining activity at 1 µM turned out to be 107%, the remaining activity at 10 µM is 102% and the remaining activity at 100 µM is 98%. Further, in experiment [3], the remaining activity at 1 µM was found to be 105%, the remaining activity at 10 µM came to 90.8% and the remaining activity at 100 µM is 94.3%.
